Measurements as given in patent US20230114728A1 (Venatorx Pharmaceuticals, Inc., priority 2019, published 2023).
Converted amounts (≈) assume the structure as drawn.

Experiments:
Test in all cases: Broth microdilution MIC in CAMHB
Format in all cases: cell-based
P. aeruginosa ATCC 35151 = conditions: Pseudomonas aeruginosa, ATCC35151; MHB; hyper-permeable strain; read-out: Minimum Inhibitory Concentration, P. aeruginosa ATCC 35151
How it was run: (§1)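 Standard CLSI-style microdilution in cation-adjusted Mueller Hinton broth, 2-fold dilution series, incubated 16-20 h at 37° C; endpoint was visual absence of growth.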

E. coli ATCC 25922 = conditions: Escherichia coli, ATCC25922; E. coli ATCC 25922; MHB; read-out: Minimum Inhibitory Concentration, E. coli 25922
How it was run: as §1

E. coli D22 = conditions: Escherichia coli; E. coli D22 (hyper-permeable); MHB; read-out: Minimum Inhibitory Concentration, E. coli D22
How it was run: as §1

[1] = tested on: K. pneumoniae SI-117 producing VIM-1; conditions: Klebsiella pneumoniae, read-out: Minimum Inhibitory Concentration, K. pneumoniae SI-117
How it was run: as §1

[2] = tested on: K. pneumoniae 848844 producing SHV-11 and KPC-2; conditions: Klebsiella pneumoniae, read-out: Minimum Inhibitory Concentration, K. pneumoniae 848844
How it was run: as §1

P. aeruginosa ATCC 27853 = conditions: Pseudomonas aeruginosa, ATCC27853; MHB; read-out: Minimum Inhibitory Concentration, P. aeruginosa ATCC 27853
How it was run: as §1

[3] = tested on: P. aeruginosa (ΔmexAB-oprM); conditions: Pseudomonas aeruginosa, read-out: Minimum Inhibitory Concentration, P. aeruginosa ΔmexAB-OprM
How it was run: as §1

E. coli AG100 = conditions: Escherichia coli; E. coli AG100 (wild-type parent); MHB; read-out: Minimum Inhibitory Concentration, E. coli AG100
How it was run: as §1

A. baumannii ATCC 19606 = conditions: Acinetobacter baumannii, ATCC19606; MHB; read-out: Minimum Inhibitory Concentration, A. baumannii ATCC 19606
How it was run: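 Lowest compound concentration with no visible growth after 16-20 h at 37 °C defines MIC. Plates of 2-fold serial dilutions in cation-adjusted Mueller Hinton broth received 2-8×10^5 CFU/mL of exponentially grown cells, per CLSI methods; panel spans reference, hyper-permeable and efflux-pump-deleted strains.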

E. coli 901C = conditions: Escherichia coli; E. coli 901C (hyper-permeable); MHB; read-out: Minimum Inhibitory Concentration, E. coli 901C
How it was run: as §1

[4] = tested on: K. pneumoniae UMM producing SHV-5 and KPC-2; conditions: Klebsiella pneumoniae, read-out: Minimum Inhibitory Concentration, K. pneumoniae UMM
How it was run: as §1

E. coli AG100A = conditions: Escherichia coli, read-out: Minimum Inhibitory Concentration, E. coli AG100A
How it was run: as §1

NCCN1CCN(C(=O)N[C@@H](C(=O)N[C@H]2Cc3cccc(C(=O)O)c3OB2O)c2cc(F)c(O)c(F)c2F)C(=O)C1=O (single isomer, unassigned) [Example 168] was tested, and the MIC (P. aeruginosa ATCC 35151) was less than 0.25 µg/mL, the MIC (E. coli ATCC 25922) was 8 to 16 µg/mL (≈ 13.5 to 27 µM) and the MIC (E. coli D22) was 0.5 to 1 µg/mL (≈ 0.843 to 1.69 µM). It also gave an MIC [1] of 32 to 64 µg/mL (≈ 53.9 to 108 µM), an MIC [2] of 32 to 64 µg/mL (≈ 53.9 to 108 µM) and an MIC (P. aeruginosa ATCC 27853) of 32 to 64 µg/mL (≈ 53.9 to 108 µM). The MIC [3] was 2 to 4 µg/mL (≈ 3.37 to 6.74 µM), the MIC (E. coli AG100) was 8 to 16 µg/mL (≈ 13.5 to 27 µM) and the MIC (A. baumannii ATCC 19606) was greater than 128 µg/mL. It also gave an MIC (E. coli 901C) of less than 0.25 µg/mL, an MIC [4] of 8 to 16 µg/mL (≈ 13.5 to 27 µM) and an MIC (E. coli AG100A) of 0.5 to 1 µg/mL (≈ 0.843 to 1.69 µM).

In the case of NCCN1CCN(C(=O)N[C@H](C(=O)N[C@H]2Cc3cccc(C(=O)O)c3OB2O)c2ccc(O)c(F)c2F)C(=O)C1=O (single isomer, unassigned) [Example 169], the MIC (P. aeruginosa ATCC 35151) was 2 to 4 µg/mL (≈ 3.48 to 6.95 µM), the MIC (E. coli ATCC 25922) was 8 to 16 µg/mL (≈ 13.9 to 27.8 µM) and the MIC (E. coli D22) was 32 to 64 µg/mL (≈ 55.6 to 111 µM). The MIC [1] was greater than 128 µg/mL, the MIC [2] was greater than 128 µg/mL and the MIC (P. aeruginosa ATCC 27853) was greater than 128 µg/mL. The MIC [3] was 32 to 64 µg/mL (≈ 55.6 to 111 µM), the MIC (E. coli AG100) was 32 to 64 µg/mL (≈ 55.6 to 111 µM) and the MIC (A. baumannii ATCC 19606) was greater than 128 µg/mL. For the same molecule, the MIC (E. coli 901C) was 2 to 4 µg/mL (≈ 3.48 to 6.95 µM), the MIC [4] was greater than 128 µg/mL and the MIC (E. coli AG100A) was 32 to 64 µg/mL (≈ 55.6 to 111 µM).

NCCN1CCN(C(=O)N[C@@H](C(=O)N[C@H]2Cc3cccc(C(=O)O)c3OB2O)c2ccc(O)c(F)c2F)C(=O)C1=O (single isomer, unassigned) [Example 170] gave an MIC (P. aeruginosa ATCC 35151) of less than 0.25 µg/mL, an MIC (E. coli ATCC 25922) of 8 to 16 µg/mL (≈ 13.9 to 27.8 µM) and an MIC (E. coli D22) of 2 to 4 µg/mL (≈ 3.48 to 6.95 µM). For the same molecule, the MIC [1] was 32 to 64 µg/mL (≈ 55.6 to 111 µM), the MIC [2] was 32 to 64 µg/mL (≈ 55.6 to 111 µM) and the MIC (P. aeruginosa ATCC 27853) was 32 to 64 µg/mL (≈ 55.6 to 111 µM). For the same molecule, the MIC [3] was 2 to 4 µg/mL (≈ 3.48 to 6.95 µM), the MIC (E. coli AG100) was 8 to 16 µg/mL (≈ 13.9 to 27.8 µM) and the MIC (A. baumannii ATCC 19606) was greater than 128 µg/mL. The MIC (E. coli 901C) was 0.5 to 1 µg/mL (≈ 0.869 to 1.74 µM), the MIC [4] was 8 to 16 µg/mL (≈ 13.9 to 27.8 µM) and the MIC (E. coli AG100A) was 2 to 4 µg/mL (≈ 3.48 to 6.95 µM).

Work on NS(=O)(=O)c1cccc(C(NC(=O)N2CCN(CCF)C(=O)C2=O)C(=O)N[C@H]2Cc3cccc(C(=O)O)c3OB2O)c1 (stereo partly drawn) [Example 100, (3R)-3-(2-(4-(2-fluoroethyl)-2,3-dioxopiperazine-1-carboxamido)-2-(3-sulfamoylphenyl)acetamido)-2-hydroxy-3,4-dihydro-2H-benzo[e][1,2]oxaborinine-8-carboxylic acid] yielded an MIC (P. aeruginosa ATCC 35151) of 2 to 4 µg/mL (≈ 3.3 to 6.61 µM), an MIC (E. coli ATCC 25922) of 32 to 64 µg/mL (≈ 52.9 to 106 µM) and an MIC (E. coli D22) of 2 to 4 µg/mL (≈ 3.3 to 6.61 µM). The MIC [1] was 32 to 64 µg/mL (≈ 52.9 to 106 µM), the MIC [2] was 32 to 64 µg/mL (≈ 52.9 to 106 µM) and the MIC (P. aeruginosa ATCC 27853) was greater than 128 µg/mL. For the same molecule, the MIC [3] was 8 to 16 µg/mL (≈ 13.2 to 26.4 µM), the MIC (E. coli AG100) was 32 to 64 µg/mL (≈ 52.9 to 106 µM) and the MIC (A. baumannii ATCC 19606) was greater than 128 µg/mL. For the same molecule, the MIC (E. coli 901C) was less than 0.25 µg/mL, the MIC [4] was 32 to 64 µg/mL (≈ 52.9 to 106 µM) and the MIC (E. coli AG100A) was 2 to 4 µg/mL (≈ 3.3 to 6.61 µM).

For CCN1CCN(C(=O)NC(C(=O)N[C@H]2Cc3cccc(C(=O)O)c3OB2O)c2cc(Cl)c(O)cc2F)C(=O)C1=O (stereo partly drawn) [Example 101, (3R)-3-(2-(5-chloro-2-fluoro-4-hydroxyphenyl)-2-(4-ethyl-2,3-dioxopiperazine-1-carboxamido)acetamido)-2-hydroxy-3,4-dihydro-2H-benzo[e][1,2]oxaborinine-8-carboxylic acid], the MIC (P. aeruginosa ATCC 35151) was 0.5 to 1 µg/mL (≈ 0.867 to 1.73 µM), the MIC (E. coli ATCC 25922) was 32 to 64 µg/mL (≈ 55.5 to 111 µM) and the MIC (E. coli D22) was 2 to 4 µg/mL (≈ 3.47 to 6.94 µM). For the same molecule, the MIC [1] was greater than 128 µg/mL, the MIC [2] was greater than 128 µg/mL and the MIC (P. aeruginosa ATCC 27853) was greater than 128 µg/mL. It also gave an MIC [3] of 8 to 16 µg/mL (≈ 13.9 to 27.7 µM), an MIC (E. coli AG100) of 32 to 64 µg/mL (≈ 55.5 to 111 µM) and an MIC (A. baumannii ATCC 19606) greater than 128 µg/mL. The MIC (E. coli 901C) was less than 0.25 µg/mL, the MIC [4] was 32 to 64 µg/mL (≈ 55.5 to 111 µM) and the MIC (E. coli AG100A) was 2 to 4 µg/mL (≈ 3.47 to 6.94 µM).

CCN1CCN(C(=O)NC(C(=O)N[C@H]2Cc3cccc(C(=O)O)c3OB2O)c2cc(F)c(O)cc2Cl)C(=O)C1=O (stereo partly drawn) [Example 103, (3R)-3-(2-(2-chloro-5-fluoro-4-hydroxyphenyl)-2-(4-ethyl-2,3-dioxopiperazine-1-carboxamido)acetamido)-2-hydroxy-3,4-dihydro-2H-benzo[e][1,2]oxaborinine-8-carboxylic acid] gave an MIC (P. aeruginosa ATCC 35151) of 2 to 4 µg/mL (≈ 3.47 to 6.94 µM), an MIC (E. coli ATCC 25922) of 32 to 64 µg/mL (≈ 55.5 to 111 µM) and an MIC (E. coli D22) of 2 to 4 µg/mL (≈ 3.47 to 6.94 µM). It also gave an MIC [1] greater than 128 µg/mL, an MIC [2] greater than 128 µg/mL and an MIC (P. aeruginosa ATCC 27853) greater than 128 µg/mL. It also gave an MIC [3] of 8 to 16 µg/mL (≈ 13.9 to 27.7 µM), an MIC (E. coli AG100) of 32 to 64 µg/mL (≈ 55.5 to 111 µM) and an MIC (A. baumannii ATCC 19606) greater than 128 µg/mL. It also gave an MIC (E. coli 901C) of less than 0.25 µg/mL, an MIC [4] of 32 to 64 µg/mL (≈ 55.5 to 111 µM) and an MIC (E. coli AG100A) of 2 to 4 µg/mL (≈ 3.47 to 6.94 µM).
